Experimental data reported in PubChem BioAssay (NCI).
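Method: 48-hour compound exposure of cells in 96-well plates, five concentrations, linear interpolation of endpoints. TGI is the concentration that stops growth completely.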

How the values were obtained:
Experiment in all cases: NCI tumour cell line growth inhibition, 48 h
SK-MEL-2 melanoma = tested on: SK-MEL-2 melanoma
RPMI-8226 leukemia = tested on: RPMI-8226 leukemia
SW-620 colon = tested on: SW-620 colon
DMS 114 small cell lung = tested on: DMS 114 small cell lung
SK-MEL-28 melanoma = tested on: SK-MEL-28 melanoma
DLD-1 colon = tested on: DLD-1 colon
KM12 colon = tested on: KM12 colon
M14 melanoma = tested on: M14 melanoma
HL-60(TB) leukemia = tested on: HL-60(TB) leukemia
UO-31 renal = tested on: UO-31 renal
LXFL 529 NSCLC = tested on: LXFL 529 NSCLC
RXF 393 renal = tested on: RXF 393 renal
HCT-116 colon = tested on: HCT-116 colon
ACHN renal = tested on: ACHN renal
HCC-2998 colon = tested on: HCC-2998 colon
CCRF-CEM leukemia = tested on: CCRF-CEM leukemia
NCI-H522 lung = tested on: NCI-H522 lung
MOLT-4 leukemia = tested on: MOLT-4 leukemia
786-0 renal = tested on: 786-0 renal
SF-268 CNS = tested on: SF-268 CNS
COLO 205 colon = tested on: COLO 205 colon
K-562 leukemia = tested on: K-562 leukemia
SF-539 CNS = tested on: SF-539 CNS
SF-295 CNS = tested on: SF-295 CNS
NCI-H226 lung = tested on: NCI-H226 lung
UACC-62 melanoma = tested on: UACC-62 melanoma
A549 NSCLC = tested on: A549 NSCLC
EKVX NSCLC = tested on: EKVX NSCLC
UACC-257 melanoma = tested on: UACC-257 melanoma
SK-OV-3 ovarian = tested on: SK-OV-3 ovarian
OVCAR-8 ovarian = tested on: OVCAR-8 ovarian
SNB-19 CNS = tested on: SNB-19 CNS
NCI-H460 lung = tested on: NCI-H460 lung
M19-MEL melanoma = tested on: M19-MEL melanoma
KM20L2 colon = tested on: KM20L2 colon
SR leukemia = tested on: SR leukemia
HOP-18 NSCLC = tested on: HOP-18 NSCLC
HOP-62 NSCLC = tested on: HOP-62 NSCLC
U251 CNS = tested on: U251 CNS
SK-MEL-5 melanoma = tested on: SK-MEL-5 melanoma
HCT-15 colon = tested on: HCT-15 colon
OVCAR-5 ovarian = tested on: OVCAR-5 ovarian
NCI-H23 lung = tested on: NCI-H23 lung
SNB-78 CNS = tested on: SNB-78 CNS
HOP-92 NSCLC = tested on: HOP-92 NSCLC
DMS 273 small cell lung = tested on: DMS 273 small cell lung
IGROV1 ovarian = tested on: IGROV1 ovarian
SN12C renal = tested on: SN12C renal
OVCAR-4 ovarian = tested on: OVCAR-4 ovarian
SNB-75 CNS = tested on: SNB-75 CNS
HT29 colon = tested on: HT29 colon
MALME-3M melanoma = tested on: MALME-3M melanoma
TK-10 renal = tested on: TK-10 renal
CAKI-1 renal = tested on: CAKI-1 renal
OVCAR-3 ovarian = tested on: OVCAR-3 ovarian
LOX IMVI melanoma = tested on: LOX IMVI melanoma
A498 renal = tested on: A498 renal

Structure (SMILES): N/N=c1\c2ccccc2c2ccc3c4ccccc4/c(=N\N)c3c12
- TGI (SK-MEL-2 melanoma): > 100 µM
- TGI (RPMI-8226 leukemia): > 100 µM
- TGI (SW-620 colon): > 100 µM
- TGI (DMS 114 small cell lung): > 100 µM
- TGI (SK-MEL-28 melanoma): > 100 µM
- TGI (DLD-1 colon): > 100 µM
- TGI (KM12 colon): > 100 µM
- TGI (M14 melanoma): > 100 µM
- TGI (HL-60(TB) leukemia): > 100 µM
- TGI (UO-31 renal): > 100 µM
- TGI (LXFL 529 NSCLC): > 100 µM
- TGI (RXF 393 renal): > 100 µM
- TGI (HCT-116 colon): > 100 µM
- TGI (ACHN renal): > 100 µM
- TGI (HCC-2998 colon): > 100 µM
- TGI (CCRF-CEM leukemia): > 100 µM
- TGI (NCI-H522 lung): > 100 µM
- TGI (MOLT-4 leukemia): > 100 µM
- TGI (786-0 renal): > 100 µM
- TGI (SF-268 CNS): > 100 µM
- TGI (COLO 205 colon): > 100 µM
- TGI (K-562 leukemia): > 100 µM
- TGI (SF-539 CNS): > 100 µM
- TGI (SF-295 CNS): > 100 µM
- TGI (NCI-H226 lung): > 100 µM
- TGI (UACC-62 melanoma): > 100 µM
- TGI (A549 NSCLC): > 100 µM
- TGI (EKVX NSCLC): > 100 µM
- TGI (UACC-257 melanoma): > 100 µM
- TGI (SK-OV-3 ovarian): > 100 µM
- TGI (OVCAR-8 ovarian): > 100 µM
- TGI (SNB-19 CNS): > 100 µM
- TGI (NCI-H460 lung): > 100 µM
- TGI (M19-MEL melanoma): > 100 µM
- TGI (KM20L2 colon): > 100 µM
- TGI (SR leukemia): > 100 µM
- TGI (HOP-18 NSCLC): > 100 µM
- TGI (HOP-62 NSCLC): > 100 µM
- TGI (U251 CNS): > 100 µM
- TGI (SK-MEL-5 melanoma): > 100 µM
- TGI (HCT-15 colon): > 100 µM
- TGI (OVCAR-5 ovarian): > 100 µM
- TGI (NCI-H23 lung): > 100 µM
- TGI (SNB-78 CNS): > 100 µM
- TGI (HOP-92 NSCLC): > 100 µM
- TGI (DMS 273 small cell lung): > 100 µM
- TGI (IGROV1 ovarian): > 100 µM
- TGI (SN12C renal): > 100 µM
- TGI (OVCAR-4 ovarian): > 100 µM
- TGI (SNB-75 CNS): > 100 µM
- TGI (HT29 colon): > 100 µM
- TGI (MALME-3M melanoma): > 100 µM

Structure (SMILES): CC(C)C(NCc1c2ccccc2[n+]([O-])c2ccccc12)C(=O)O (stereo not drawn)
- TGI (SK-MEL-2 melanoma): > 100 µM
- TGI (RPMI-8226 leukemia): 86.5 µM
- TGI (SW-620 colon): > 100 µM
- TGI (DMS 114 small cell lung): > 100 µM
- TGI (SK-MEL-28 melanoma): > 100 µM
- TGI (DLD-1 colon): > 100 µM
- TGI (KM12 colon): > 100 µM
- TGI (M14 melanoma): > 100 µM
- TGI (TK-10 renal): > 100 µM
- TGI (HL-60(TB) leukemia): 76 µM
- TGI (UO-31 renal): > 100 µM
- TGI (LXFL 529 NSCLC): > 100 µM
- TGI (CAKI-1 renal): > 100 µM
- TGI (HCT-116 colon): > 100 µM
- TGI (ACHN renal): > 100 µM
- TGI (HCC-2998 colon): > 100 µM
- TGI (CCRF-CEM leukemia): > 100 µM
- TGI (NCI-H522 lung): > 100 µM
- TGI (MOLT-4 leukemia): > 100 µM
- TGI (786-0 renal): > 100 µM
- TGI (SF-268 CNS): > 100 µM
- TGI (COLO 205 colon): > 100 µM
- TGI (K-562 leukemia): > 100 µM
- TGI (SF-295 CNS): > 100 µM
- TGI (NCI-H226 lung): > 100 µM
- TGI (UACC-62 melanoma): > 100 µM
- TGI (A549 NSCLC): > 100 µM
- TGI (EKVX NSCLC): > 100 µM
- TGI (UACC-257 melanoma): > 100 µM
- TGI (SK-OV-3 ovarian): > 100 µM
- TGI (OVCAR-8 ovarian): > 100 µM
- TGI (SNB-19 CNS): > 100 µM
- TGI (NCI-H460 lung): > 100 µM
- TGI (KM20L2 colon): > 100 µM
- TGI (HOP-18 NSCLC): > 100 µM
- TGI (HOP-62 NSCLC): > 100 µM
- TGI (OVCAR-3 ovarian): > 100 µM
- TGI (U251 CNS): > 100 µM
- TGI (SK-MEL-5 melanoma): > 100 µM
- TGI (HCT-15 colon): > 100 µM
- TGI (OVCAR-5 ovarian): > 100 µM
- TGI (NCI-H23 lung): > 100 µM
- TGI (SNB-78 CNS): > 100 µM
- TGI (HOP-92 NSCLC): 53.2 µM
- TGI (DMS 273 small cell lung): > 100 µM
- TGI (IGROV1 ovarian): > 100 µM
- TGI (LOX IMVI melanoma): > 100 µM
- TGI (A498 renal): > 100 µM
- TGI (SN12C renal): > 100 µM
- TGI (OVCAR-4 ovarian): > 100 µM
- TGI (SNB-75 CNS): > 100 µM
- TGI (HT29 colon): > 100 µM
- TGI (MALME-3M melanoma): > 100 µM

Structure (SMILES): C[C@]12CCC(=O)C(O)=C1CCC2=O
- TGI (RPMI-8226 leukemia): > 100 µM
- TGI (SW-620 colon): > 100 µM
- TGI (SK-MEL-28 melanoma): > 100 µM
- TGI (DLD-1 colon): > 100 µM
- TGI (KM12 colon): > 100 µM
- TGI (M14 melanoma): > 100 µM
- TGI (TK-10 renal): > 100 µM
- TGI (HL-60(TB) leukemia): > 100 µM
- TGI (UO-31 renal): > 100 µM
- TGI (LXFL 529 NSCLC): > 100 µM
- TGI (CAKI-1 renal): > 100 µM
- TGI (RXF 393 renal): > 100 µM
- TGI (HCT-116 colon): > 100 µM
- TGI (ACHN renal): > 100 µM
- TGI (HCC-2998 colon): > 100 µM
- TGI (CCRF-CEM leukemia): > 100 µM
- TGI (NCI-H522 lung): > 100 µM
- TGI (MOLT-4 leukemia): > 100 µM
- TGI (786-0 renal): > 100 µM
- TGI (SF-268 CNS): > 100 µM
- TGI (COLO 205 colon): > 100 µM
- TGI (SF-539 CNS): > 100 µM
- TGI (SF-295 CNS): > 100 µM
- TGI (NCI-H226 lung): > 100 µM
- TGI (UACC-62 melanoma): > 100 µM
- TGI (A549 NSCLC): > 100 µM
- TGI (EKVX NSCLC): > 100 µM
- TGI (UACC-257 melanoma): > 100 µM
- TGI (SK-OV-3 ovarian): > 100 µM
- TGI (OVCAR-8 ovarian): > 100 µM
- TGI (SNB-19 CNS): > 100 µM
- TGI (NCI-H460 lung): > 100 µM
- TGI (M19-MEL melanoma): > 100 µM
- TGI (KM20L2 colon): > 100 µM
- TGI (SR leukemia): > 100 µM
- TGI (HOP-18 NSCLC): > 100 µM
- TGI (HOP-62 NSCLC): > 100 µM
- TGI (OVCAR-3 ovarian): > 100 µM
- TGI (U251 CNS): > 100 µM
- TGI (SK-MEL-5 melanoma): > 100 µM
- TGI (HCT-15 colon): > 100 µM
- TGI (OVCAR-5 ovarian): > 100 µM
- TGI (SNB-78 CNS): > 100 µM
- TGI (HOP-92 NSCLC): > 100 µM
- TGI (DMS 273 small cell lung): > 100 µM
- TGI (IGROV1 ovarian): > 100 µM
- TGI (LOX IMVI melanoma): > 100 µM
- TGI (A498 renal): > 100 µM
- TGI (SN12C renal): > 100 µM
- TGI (OVCAR-4 ovarian): > 100 µM
- TGI (SNB-75 CNS): > 100 µM
- TGI (HT29 colon): > 100 µM
- TGI (MALME-3M melanoma): > 100 µM
